Literature values as cited in patent publication US20070025931A1, “Powdery preparations containing 2.4.6-trianilino-p-(carbo-2'-ethylhexyl-1'-oxi)-1.3.5-triazine” (BASF Aktiengesellschaft, priority 2004, published 2007).

Details: at 314 nm

For CCCCC(CC)COC(=O)c1ccc(Nc2nc(Nc3ccc(C(=O)OCC(CC)CCCC)cc3)nc(Nc3ccc(C(=O)OCC(CC)CCCC)cc3)n2)cc1 (stereo not shown) [Uvinul® T150, 2,4,6-Trianilino-p-(carbo-2′-ethylhexyl-1′-oxy)-1,3,5-triazine], which absorbance coefficient is on record?
The absorbance coefficient was over 1500.
